# Test results reported in patent US20110230481A2, “DERIVATIVES OF TETRABROMOBENZIMIDAZOLE, A PROCESS FOR THE PREPARATION THEREOF, A PHARMACEUTICAL COMPOSITION COMPRISING THE SAME, A METHOD OF USING THE SAME, A METHOD FOR MODULATING OR REGULATING SERINE/THREONINE KINASES, AND SERINE/THREONINE KINASES MODULATING AGENT” (SELVITA S.A., priority 2009, published 2011).
# How the values were obtained:
# Assay in all cases: KINOMEscan Max
# Format in all cases: binding
# [1] = target: T1, FGFR1 (Homo sapiens, UniProt P11362)
# T1 construct: purchased Ambit Kinomescan (contract panel, KINOMEscan Max)
# Outline: (§1)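 Active-site competition binding format, not an activity assay. Tagged kinase retained on immobilized ligand is detected by quantitative PCR of its DNA label.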
# [2] = target: T2, FYN (Homo sapiens, UniProt P06241)
# T2 construct: purchased Ambit Kinomescan (contract panel, KINOMEscan Max)
# Outline: as §1
# [3] = target: PCTK2 (Homo sapiens, UniProt Q00537)
# Sequence of PCTK2 (Q00537 whole entry): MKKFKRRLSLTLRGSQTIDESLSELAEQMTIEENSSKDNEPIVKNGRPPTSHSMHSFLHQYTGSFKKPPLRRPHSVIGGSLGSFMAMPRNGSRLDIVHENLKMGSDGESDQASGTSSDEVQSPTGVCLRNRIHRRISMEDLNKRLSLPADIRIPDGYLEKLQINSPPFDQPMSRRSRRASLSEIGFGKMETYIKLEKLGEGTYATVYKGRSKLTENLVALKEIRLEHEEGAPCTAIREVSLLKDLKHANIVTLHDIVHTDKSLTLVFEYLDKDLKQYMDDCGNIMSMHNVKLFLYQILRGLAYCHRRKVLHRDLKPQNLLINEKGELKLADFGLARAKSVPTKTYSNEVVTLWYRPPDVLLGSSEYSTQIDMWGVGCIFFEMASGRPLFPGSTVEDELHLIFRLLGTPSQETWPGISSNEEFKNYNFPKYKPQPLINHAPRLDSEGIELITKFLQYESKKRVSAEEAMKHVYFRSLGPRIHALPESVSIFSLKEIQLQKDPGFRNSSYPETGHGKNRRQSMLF
# Outline: as §1
# [4] = target: YSK4 (Homo sapiens, UniProt Q56UN5)
# Sequence of YSK4 (Q56UN5 whole entry): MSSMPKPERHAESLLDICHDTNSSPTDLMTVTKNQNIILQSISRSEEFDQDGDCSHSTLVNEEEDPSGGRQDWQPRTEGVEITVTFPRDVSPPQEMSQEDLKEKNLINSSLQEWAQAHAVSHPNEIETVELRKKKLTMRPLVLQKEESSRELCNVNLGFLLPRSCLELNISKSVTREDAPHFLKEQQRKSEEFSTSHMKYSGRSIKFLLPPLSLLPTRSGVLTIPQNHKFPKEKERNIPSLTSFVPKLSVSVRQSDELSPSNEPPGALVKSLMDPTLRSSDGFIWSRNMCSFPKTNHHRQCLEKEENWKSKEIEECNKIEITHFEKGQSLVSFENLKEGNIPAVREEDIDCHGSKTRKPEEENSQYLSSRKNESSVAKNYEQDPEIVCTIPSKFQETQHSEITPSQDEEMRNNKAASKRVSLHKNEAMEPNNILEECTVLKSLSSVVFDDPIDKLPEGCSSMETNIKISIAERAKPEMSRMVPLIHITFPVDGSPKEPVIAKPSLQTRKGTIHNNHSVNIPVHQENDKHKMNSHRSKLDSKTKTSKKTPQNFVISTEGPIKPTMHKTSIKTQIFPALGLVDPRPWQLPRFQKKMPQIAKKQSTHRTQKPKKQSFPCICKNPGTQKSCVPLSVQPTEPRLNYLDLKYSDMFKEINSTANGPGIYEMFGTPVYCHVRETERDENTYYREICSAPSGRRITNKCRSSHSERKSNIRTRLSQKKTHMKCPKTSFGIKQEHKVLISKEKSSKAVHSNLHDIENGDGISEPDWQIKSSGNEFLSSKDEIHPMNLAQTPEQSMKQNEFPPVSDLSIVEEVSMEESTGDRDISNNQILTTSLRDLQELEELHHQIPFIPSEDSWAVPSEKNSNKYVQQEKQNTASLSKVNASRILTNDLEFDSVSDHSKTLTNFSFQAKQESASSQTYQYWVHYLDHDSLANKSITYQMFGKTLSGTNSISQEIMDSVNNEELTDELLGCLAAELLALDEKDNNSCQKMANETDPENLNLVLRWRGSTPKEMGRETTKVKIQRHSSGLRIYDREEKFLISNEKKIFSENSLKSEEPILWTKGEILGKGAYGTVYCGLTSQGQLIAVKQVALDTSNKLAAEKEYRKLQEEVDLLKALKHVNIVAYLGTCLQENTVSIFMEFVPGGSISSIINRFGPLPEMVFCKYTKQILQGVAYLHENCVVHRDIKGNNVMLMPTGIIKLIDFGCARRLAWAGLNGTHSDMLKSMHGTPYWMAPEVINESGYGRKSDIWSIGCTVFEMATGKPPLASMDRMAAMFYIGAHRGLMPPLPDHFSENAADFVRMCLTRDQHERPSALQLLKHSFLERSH
# Outline: as §1
# [5] = target: T3, PRKD3 (Homo sapiens, UniProt O94806)
# T3 construct: DNA tag (qPCR read-out)
# T3 sequence (O94806 whole entry): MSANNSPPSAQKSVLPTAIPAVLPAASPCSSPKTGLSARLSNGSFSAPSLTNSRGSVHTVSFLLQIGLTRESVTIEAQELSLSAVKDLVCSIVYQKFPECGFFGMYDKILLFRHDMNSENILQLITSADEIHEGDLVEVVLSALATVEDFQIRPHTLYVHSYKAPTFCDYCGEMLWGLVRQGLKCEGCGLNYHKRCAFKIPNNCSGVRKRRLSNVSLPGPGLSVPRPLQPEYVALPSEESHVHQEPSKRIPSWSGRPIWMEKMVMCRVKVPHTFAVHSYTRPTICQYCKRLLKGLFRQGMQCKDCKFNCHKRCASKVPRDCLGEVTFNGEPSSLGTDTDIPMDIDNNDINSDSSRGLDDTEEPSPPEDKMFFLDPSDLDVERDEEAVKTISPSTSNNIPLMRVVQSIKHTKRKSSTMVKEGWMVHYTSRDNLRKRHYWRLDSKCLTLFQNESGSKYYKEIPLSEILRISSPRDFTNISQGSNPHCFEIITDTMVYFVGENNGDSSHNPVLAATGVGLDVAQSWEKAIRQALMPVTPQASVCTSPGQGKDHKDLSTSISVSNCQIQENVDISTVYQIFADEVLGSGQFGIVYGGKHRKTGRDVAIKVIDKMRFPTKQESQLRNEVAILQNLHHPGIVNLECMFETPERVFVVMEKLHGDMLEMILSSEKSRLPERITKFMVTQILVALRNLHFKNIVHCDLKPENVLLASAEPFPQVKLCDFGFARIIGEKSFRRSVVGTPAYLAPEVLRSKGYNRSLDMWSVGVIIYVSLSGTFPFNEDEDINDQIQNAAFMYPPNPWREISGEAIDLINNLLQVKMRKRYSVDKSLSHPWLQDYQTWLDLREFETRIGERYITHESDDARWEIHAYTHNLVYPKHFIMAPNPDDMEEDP
# Outline: as §1
# [6] = target: NIM1 (Homo sapiens, UniProt Q8IY84)
# Outline: as §1
# [7] = target: T4, PLK4 (Homo sapiens, UniProt O00444)
# T4 construct: DNA tag (qPCR read-out)
# Outline: as §1
# [8] = target: T5, CSNK1E (Homo sapiens, UniProt P49674)
# T5 construct: DNA tag (qPCR read-out)
# Outline: as §1
# [9] = target: p38-delta (Homo sapiens, UniProt O15264)
# Outline: as §1
# [10] = target: T6, AMPK-alpha1 (Homo sapiens, UniProt Q13131)
# T6 construct: DNA tag (qPCR label); purchased Ambit Kinomescan (contract screening)
# Outline: as §1
# [11] = target: T7, FGFR3 (Homo sapiens, UniProt P22607)
# T7 construct: purchased Ambit (KINOMEscan Max service)
# Outline: as §1
# [12] = target: T8, CSNK1G2 (Homo sapiens, UniProt P78368); conditions: 1 μM
# T8 construct: purchased Ambit (KINOMEscan Max panel service)
# Outline: as §1
# [13] = target: T9, DLK (Homo sapiens, UniProt Q12852); conditions: 1 μM
# T9 construct: DNA tag (qPCR read-out)
# Outline: as §1
# [14] = target: T10, PIK3CA(I800L) (Homo sapiens, UniProt P42336, I800L)
# T10 construct: DNA tag (qPCR read-out)
# Outline: as §1
# [15] = target: T11, PRKD2 (Homo sapiens, UniProt Q9BZL6)
# T11 construct: DNA tag (qPCR read-out)
# Outline: as §1
# [16] = target: EGFR(L861Q) (Homo sapiens, UniProt P00533, L861Q); conditions: 1 μM
# Outline: as §1
# [17] = target: PCTK1 (Homo sapiens, UniProt Q00536)
# Outline: as §1
# [18] = target: T12, EPHA6 (Homo sapiens, UniProt Q9UF33)
# T12 construct: purchased Ambit (KINOMEscan Max panel service)
# Outline: as §1
# [19] = target: T13, CDKL1 (Homo sapiens, UniProt Q00532)
# T13 construct: DNA tag (qPCR label); purchased Ambit Kinomescan (contract screening)
# Outline: as §1
# [20] = target: ABL1(H396P)-phosphorylated (Homo sapiens, UniProt P00519, H396P)
# Outline: as §1
# [21] = target: T14, MAPKAPK5 (Homo sapiens, UniProt Q8IW41)
# T14 construct: purchased Ambit Kinomescan (contract panel)
# Outline: as §1
# [22] = target: T15, RIOK2 (Homo sapiens, UniProt Q9BVS4)
# T15 construct: DNA tag (qPCR read-out)
# Outline: as §1
# [23] = target: MYO3A (Homo sapiens, UniProt Q8NEV4)
# Outline: as §1
# [24] = target: T16, JAK3(JH1domain-catalytic) (Homo sapiens, UniProt P52333)
# T16 construct: JAK3(JH1domain-catalytic); purchased Ambit Kinomescan (contract panel)
# T16 sequence (P52333 822-1111 limits assumed): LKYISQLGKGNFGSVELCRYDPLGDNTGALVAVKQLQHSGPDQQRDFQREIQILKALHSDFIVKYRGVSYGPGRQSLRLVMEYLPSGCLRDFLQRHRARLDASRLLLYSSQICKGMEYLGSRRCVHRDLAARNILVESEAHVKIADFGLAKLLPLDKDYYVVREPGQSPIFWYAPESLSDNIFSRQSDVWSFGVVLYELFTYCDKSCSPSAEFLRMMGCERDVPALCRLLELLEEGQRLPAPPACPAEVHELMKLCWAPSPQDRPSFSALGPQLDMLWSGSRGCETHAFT
# Outline: as §1
# [25] = target: CSNK1G3 (Homo sapiens, UniProt Q9Y6M4); conditions: 1 μM
# Sequence of CSNK1G3 (Q9Y6M4 whole entry): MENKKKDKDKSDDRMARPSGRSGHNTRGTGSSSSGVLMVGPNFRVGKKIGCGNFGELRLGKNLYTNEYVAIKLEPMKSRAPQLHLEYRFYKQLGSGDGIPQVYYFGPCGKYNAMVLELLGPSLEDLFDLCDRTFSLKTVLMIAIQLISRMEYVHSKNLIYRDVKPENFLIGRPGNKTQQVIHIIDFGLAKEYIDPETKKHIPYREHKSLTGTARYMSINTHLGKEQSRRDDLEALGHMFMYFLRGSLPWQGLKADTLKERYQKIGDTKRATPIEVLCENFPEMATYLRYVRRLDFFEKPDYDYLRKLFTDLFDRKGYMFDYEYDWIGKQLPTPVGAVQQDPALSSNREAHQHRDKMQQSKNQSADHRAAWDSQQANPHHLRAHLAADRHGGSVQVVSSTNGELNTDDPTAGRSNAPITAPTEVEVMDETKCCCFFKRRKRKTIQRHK
# Outline: as §1
# [26] = target: T17, ROS1 (Homo sapiens, UniProt P08922)
# T17 construct: DNA tag (qPCR read-out)
# Outline: as §1
# [27] = target: T18, CDKL2 (Homo sapiens, UniProt Q92772)
# T18 construct: purchased Ambit (KINOMEscan Max service)
# T18 sequence (Q92772 whole entry): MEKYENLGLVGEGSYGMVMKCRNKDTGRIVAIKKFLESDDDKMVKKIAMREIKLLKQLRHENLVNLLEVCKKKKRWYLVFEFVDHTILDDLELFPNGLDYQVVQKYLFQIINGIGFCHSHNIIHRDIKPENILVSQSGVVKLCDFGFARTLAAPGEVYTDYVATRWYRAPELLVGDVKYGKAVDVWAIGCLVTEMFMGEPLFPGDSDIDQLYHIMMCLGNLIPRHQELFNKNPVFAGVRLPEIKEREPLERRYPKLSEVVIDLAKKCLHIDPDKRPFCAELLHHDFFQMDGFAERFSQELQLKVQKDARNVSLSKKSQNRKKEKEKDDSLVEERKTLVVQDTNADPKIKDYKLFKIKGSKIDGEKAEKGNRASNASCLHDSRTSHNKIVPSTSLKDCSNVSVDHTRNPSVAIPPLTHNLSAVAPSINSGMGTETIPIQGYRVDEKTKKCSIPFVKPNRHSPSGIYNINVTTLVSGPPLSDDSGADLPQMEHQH
# Outline: as §1
# [28] = target: T19, TSSK1B (Homo sapiens, UniProt Q9BXA7)
# T19 construct: purchased Ambit Kinomescan (contract screening service)
# Outline: as §1
# [29] = target: T20, PRKG1 (Homo sapiens, UniProt Q13976)
# T20 construct: DNA tag (qPCR read-out)
# Outline: as §1
# [30] = target: T21, KIT(D816H) (Homo sapiens, UniProt P10721, D816H)
# T21 construct: purchased Ambit Kinomescan (contract screening)
# Outline: as §1
# [31] = target: TRPM6 (Homo sapiens, UniProt Q9BX84)
# Outline: as §1
# [32] = target: T22, FGFR4 (Homo sapiens, UniProt P22455)
# T22 construct: purchased Ambit (KINOMEscan Max service)
# T22 sequence (P22455 22-802): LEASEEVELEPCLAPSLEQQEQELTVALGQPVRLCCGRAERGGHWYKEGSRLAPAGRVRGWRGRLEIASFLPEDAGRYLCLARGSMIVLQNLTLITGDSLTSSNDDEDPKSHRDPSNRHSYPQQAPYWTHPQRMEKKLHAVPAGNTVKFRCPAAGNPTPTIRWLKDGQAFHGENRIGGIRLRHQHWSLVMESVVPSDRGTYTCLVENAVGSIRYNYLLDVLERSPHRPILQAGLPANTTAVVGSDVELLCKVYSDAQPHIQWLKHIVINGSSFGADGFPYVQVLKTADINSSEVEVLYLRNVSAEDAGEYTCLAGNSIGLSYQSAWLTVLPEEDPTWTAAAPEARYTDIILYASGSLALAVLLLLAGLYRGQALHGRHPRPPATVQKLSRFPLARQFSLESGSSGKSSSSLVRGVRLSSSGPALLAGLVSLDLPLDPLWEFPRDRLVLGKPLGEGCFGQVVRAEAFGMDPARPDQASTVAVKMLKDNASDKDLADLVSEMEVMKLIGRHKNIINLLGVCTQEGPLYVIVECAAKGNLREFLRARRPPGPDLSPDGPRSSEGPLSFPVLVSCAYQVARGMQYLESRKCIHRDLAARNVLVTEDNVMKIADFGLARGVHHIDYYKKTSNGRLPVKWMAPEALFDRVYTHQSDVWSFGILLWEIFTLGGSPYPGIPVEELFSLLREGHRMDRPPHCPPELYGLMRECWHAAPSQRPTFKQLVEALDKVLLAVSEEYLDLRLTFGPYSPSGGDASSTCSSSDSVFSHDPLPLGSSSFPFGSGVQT
# Outline: as §1
# [33] = target: p38-gamma (Homo sapiens, UniProt P53778)
# Outline: as §1
# [34] = target: MAK (Homo sapiens, UniProt P20794)
# Outline: as §1
smiles,measurement,setting,value
"NCCCNc1nc2c(Br)c(Br)c(Br)c(Br)c2[nH]1 [Compound 11, N-(3-aminopropyl)-4,5,6,7-tetrabromo-1H-benzo[d]imidazol-2-amine]",remaining binding at 1 µM,[1],100%
same,remaining binding at 1 µM,[2],100%
same,remaining binding at 1 µM,[3],100%
same,remaining binding at 1 µM,[4],95%
same,remaining binding at 1 µM,[5],27%
same,remaining binding at 1 µM,[6],99%
same,remaining binding at 1 µM,[7],100%
same,remaining binding at 1 µM,[8],34%
same,remaining binding at 1 µM,[9],100%
same,remaining binding at 1 µM,[10],100%
same,remaining binding at 1 µM,[11],84%
same,% binding,[12],100%
same,% binding,[13],87%
same,remaining binding at 1 µM,[14],100%
same,remaining binding at 1 µM,[15],42%
same,% binding,[16],96%
same,remaining binding at 1 µM,[17],100%
same,remaining binding at 1 µM,[18],100%
same,remaining binding at 1 µM,[19],100%
same,remaining binding at 1 µM,[20],100%
same,remaining binding at 1 µM,[21],100%
same,remaining binding at 1 µM,[22],100%
same,remaining binding at 1 µM,[23],100%
same,remaining binding at 1 µM,[24],100%
same,% binding,[25],92%
same,remaining binding at 1 µM,[26],100%
same,remaining binding at 1 µM,[27],85%
same,remaining binding at 1 µM,[28],100%
same,remaining binding at 1 µM,[29],53%
same,remaining binding at 1 µM,[30],97%
same,remaining binding at 1 µM,[31],91%
same,remaining binding at 1 µM,[32],84%
same,remaining binding at 1 µM,[33],76%
same,remaining binding at 1 µM,[34],79%
